Literature values as cited in publication PMC8679620, “Receptor-Targeted Photodynamic Therapy of Glucagon-Like Peptide 1 Receptor–Positive Lesions” (Journal of Nuclear Medicine, 2020).

Details: at 689 nm; ref [12],[17]
Source text: Exendin-4-IRDye700DX was supplied by piCHEM. IRDye700DX NHS ester was obtained from LI-COR Biosciences.

extinction coefficient: 210000 M⁻¹ cm⁻¹
Compound: C[Si](C)(CCC[N+](CCCS(=O)(=O)[O-])(CCCS(=O)(=O)[O-])CCCS(=O)(=O)[O-])O[Si]1(O[Si](C)(C)CCC[N+](CCCS(=O)(=O)[O-])(CCCS(=O)(=O)[O-])CCCS(=O)(=O)[O-])n2c3c4ccccc4c2N=C2N=C(N=c4c5ccccc5c(n41)=NC1=NC(=N3)c3ccccc31)c1cccc(OCCCOC(=O)NCCCCCC(=O)ON3C(=O)CCC3=O)c12.[Na+].[Na+].[Na+].[Na+] (stereo not shown) [IRDye700DX]
